Test [1] deals with D-amino-acid oxidase (Sus scrofa, UniProt P00371). Nature of the test: Inhibition of pig D-amino acid oxidase.
Test [2] relates to Rattus norvegicus. The experiment in a line: Increase in D-serine level in Sprague-Dawley rat plasma at 30 mg/kg, po coadministered with D-serine. It counts as functional, organism-based. Set-up: dose 30 mg/kg.
Test [3] concerns Rattus norvegicus. Nature of the test: Increase in D-serine level in Sprague-Dawley rat prefrontal cortex at 30 mg/kg, po coadministered with D-serine. It counts as functional.
The subject of test [4] is Rattus norvegicus. The experiment in a line: Increase in D-serine level in Sprague-Dawley rat prefrontal cortex at 30 mg/kg, po. It is filed as functional, organism-based. Set-up: dose 30 mg/kg.

SMILES strings stand for the structures. The source made the active and inactive calls. No cut-off for these calls is given here. A value given as a limit tells only on which side of the number the result lay.

D-amino-acid oxidase, sequence (P00371 whole entry): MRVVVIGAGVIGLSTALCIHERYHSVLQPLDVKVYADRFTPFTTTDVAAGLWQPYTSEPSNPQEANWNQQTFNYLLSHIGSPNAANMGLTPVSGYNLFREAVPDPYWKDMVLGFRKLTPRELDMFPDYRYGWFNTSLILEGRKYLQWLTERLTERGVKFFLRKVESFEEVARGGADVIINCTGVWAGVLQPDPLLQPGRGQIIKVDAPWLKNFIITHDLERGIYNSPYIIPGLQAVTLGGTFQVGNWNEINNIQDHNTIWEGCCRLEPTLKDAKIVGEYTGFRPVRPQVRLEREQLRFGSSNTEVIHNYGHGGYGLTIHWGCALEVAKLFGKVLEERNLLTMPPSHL

Turning to `Oc1noc2ccc(Br)cc12`, the concentration for half-maximal inhibition (IC50) in test [1] was 0.599 µM.
The same measure, in the same setting: with `NCc1cc(=O)[nH]o1` [MUSCIMOL] the figure was over 100 µM.
On the same count and under the same terms, to `Oc1noc2cccc(F)c12` belongs 7.82 µM.
Still for that read-out and setting: to `Oc1noc2ccc(I)cc12` belongs 1.51 µM; to `Cc1ccc2c(O)noc2c1`, 0.269 µM.
Regarding `CCOc1ccc2c(O)noc2c1`, the IC50 in test [1] was over 100 µM.
As to `Oc1noc2cc(Cl)ccc12`, in test [1], half-maximal inhibition (IC50) required 0.188 µM. The outcome in test [2] was Active. For the same molecule, in test [3], the Activity is on record as over 60%. Moreover, in test [4], the result was inactive.
On to `O=c1[nH]oc2cccc(C(F)(F)F)c12`, for which the half-inhibitory concentration (IC50) in test [1] was over 100 µM.
Take `Oc1noc2cc(F)ccc12`: 0.444 µM corresponded to half-maximal inhibition in test [1] (IC50).
Still for that read-out and setting: to `O=c1[nH]oc2cc(C(F)(F)F)ccc12` belongs 5 µM.
Same read-out and setting: with `Cc1c(C[C@H](N)C(=O)O)o[nH]c1=O` the figure was over 100 µM.
For `COc1ccc2c(O)noc2c1`, inhibition in test [1] was half-maximal at 2.57 µM (IC50).
On the same count and under the same terms, to `Oc1noc2c(F)cccc12` belongs 23 µM; to `Oc1noc2c(F)c(C(F)(F)F)ccc12`, over 100 µM.
The same measure, in the same setting: to `Cc1cccc2c(O)noc12` belongs over 100 µM; to `O=[N+]([O-])c1ccc2c(O)noc2c1`, 0.722 µM; to `Oc1noc2ccccc12`, 1.88 µM.
Still for that read-out and setting: to `COc1noc2cc(Cl)ccc12` belongs over 100 µM; to `O=c1[nH]oc2ccc([N+](=O)[O-])cc12`, 2.95 µM.

Usually IC50 stands for the midpoint of a concentration-inhibition curve. The low end stands for higher potency, the high end for lower potency.

The values are drawn from ChEMBL document CHEMBL1150429, “Synthesis and biological evaluation of D-amino acid oxidase inhibitors” (J Med Chem, 2008).
